# Measurements published in the NIST ThermoML archive (doi:10.1021/je400055v).
# Numbers after ± are expanded uncertainties.
# Details: Liquid, Vibrating tube method
compound,measurement,setting,value
Cc1ccc(O)cc1 [4-methylphenol],mass density,"312.9 K, 1002 kPa",1019.4 ± 0.2 kg/m3
same,mass density,"312.9 K, 2016 kPa",1020 ± 0.2 kg/m3
same,mass density,"312.9 K, 3017 kPa",1020.6 ± 0.2 kg/m3
same,mass density,"312.9 K, 4016 kPa",1021.1 ± 0.2 kg/m3
same,mass density,"312.9 K, 5002 kPa",1021.7 ± 0.2 kg/m3
same,mass density,"312.9 K, 6010 kPa",1022.2 ± 0.2 kg/m3
same,mass density,"312.9 K, 7000 kPa",1022.8 ± 0.2 kg/m3
same,mass density,"312.9 K, 8006 kPa",1023.3 ± 0.2 kg/m3
same,mass density,"312.9 K, 9001 kPa",1023.9 ± 0.2 kg/m3
same,mass density,"312.9 K, 10002 kPa",1024.4 ± 0.2 kg/m3
same,mass density,"312.9 K, 11006 kPa",1024.9 ± 0.2 kg/m3
same,mass density,"312.9 K, 12002 kPa",1025.5 ± 0.2 kg/m3
same,mass density,"312.9 K, 13015 kPa",1026 ± 0.2 kg/m3
same,mass density,"312.9 K, 14007 kPa",1026.6 ± 0.2 kg/m3
same,mass density,"312.9 K, 15006 kPa",1027.1 ± 0.2 kg/m3
same,mass density,"312.9 K, 16019 kPa",1027.6 ± 0.2 kg/m3
same,mass density,"312.9 K, 17004 kPa",1028.1 ± 0.2 kg/m3
same,mass density,"312.9 K, 18011 kPa",1028.6 ± 0.2 kg/m3
same,mass density,"312.9 K, 19009 kPa",1029.2 ± 0.2 kg/m3
same,mass density,"312.9 K, 20005 kPa",1029.7 ± 0.2 kg/m3
same,mass density,"312.9 K, 21008 kPa",1030.2 ± 0.2 kg/m3
same,mass density,"312.9 K, 22004 kPa",1030.7 ± 0.2 kg/m3
same,mass density,"312.9 K, 23023 kPa",1031.2 ± 0.2 kg/m3
same,mass density,"312.9 K, 24004 kPa",1031.7 ± 0.2 kg/m3
same,mass density,"312.9 K, 25006 kPa",1032.2 ± 0.2 kg/m3
same,mass density,"322.78 K, 1019 kPa",1011.6 ± 0.2 kg/m3
same,mass density,"322.78 K, 2015 kPa",1012.2 ± 0.2 kg/m3
same,mass density,"322.78 K, 3002 kPa",1012.8 ± 0.2 kg/m3
same,mass density,"322.78 K, 4013 kPa",1013.4 ± 0.2 kg/m3
same,mass density,"322.78 K, 5011 kPa",1013.9 ± 0.2 kg/m3
same,mass density,"322.78 K, 6018 kPa",1014.5 ± 0.2 kg/m3
same,mass density,"322.78 K, 7022 kPa",1015.1 ± 0.2 kg/m3
same,mass density,"322.78 K, 8001 kPa",1015.7 ± 0.2 kg/m3
same,mass density,"322.78 K, 9015 kPa",1016.3 ± 0.2 kg/m3
same,mass density,"322.78 K, 10006 kPa",1016.8 ± 0.2 kg/m3
same,mass density,"322.78 K, 11002 kPa",1017.4 ± 0.2 kg/m3
same,mass density,"322.78 K, 12018 kPa",1017.9 ± 0.2 kg/m3
same,mass density,"322.78 K, 13002 kPa",1018.4 ± 0.2 kg/m3
same,mass density,"322.78 K, 14016 kPa",1019 ± 0.2 kg/m3
same,mass density,"322.78 K, 15001 kPa",1019.5 ± 0.2 kg/m3
same,mass density,"322.78 K, 16000 kPa",1020.1 ± 0.2 kg/m3
same,mass density,"322.78 K, 17001 kPa",1020.6 ± 0.2 kg/m3
same,mass density,"322.78 K, 18029 kPa",1021.2 ± 0.2 kg/m3
same,mass density,"322.78 K, 19015 kPa",1021.7 ± 0.2 kg/m3
same,mass density,"322.78 K, 20011 kPa",1022.2 ± 0.2 kg/m3
same,mass density,"322.78 K, 21022 kPa",1022.8 ± 0.2 kg/m3
same,mass density,"322.78 K, 22002 kPa",1023.3 ± 0.2 kg/m3
same,mass density,"322.78 K, 23006 kPa",1023.8 ± 0.2 kg/m3
same,mass density,"322.78 K, 24010 kPa",1024.4 ± 0.2 kg/m3
same,mass density,"322.78 K, 25023 kPa",1024.9 ± 0.2 kg/m3
same,mass density,"332.54 K, 1040 kPa",1003.7 ± 0.2 kg/m3
same,mass density,"332.54 K, 2019 kPa",1004.3 ± 0.2 kg/m3
same,mass density,"332.54 K, 3013 kPa",1005 ± 0.2 kg/m3
same,mass density,"332.54 K, 4019 kPa",1005.6 ± 0.2 kg/m3
same,mass density,"332.54 K, 5001 kPa",1006.2 ± 0.2 kg/m3
same,mass density,"332.54 K, 6001 kPa",1006.8 ± 0.2 kg/m3
same,mass density,"332.54 K, 7002 kPa",1007.5 ± 0.2 kg/m3
same,mass density,"332.54 K, 8041 kPa",1008.1 ± 0.2 kg/m3
same,mass density,"332.54 K, 9000 kPa",1008.7 ± 0.2 kg/m3
same,mass density,"332.54 K, 10001 kPa",1009.2 ± 0.2 kg/m3
same,mass density,"332.54 K, 11006 kPa",1009.7 ± 0.2 kg/m3
same,mass density,"332.54 K, 12001 kPa",1010.4 ± 0.2 kg/m3
same,mass density,"332.54 K, 13008 kPa",1010.9 ± 0.2 kg/m3
same,mass density,"332.54 K, 14004 kPa",1011.5 ± 0.2 kg/m3
same,mass density,"332.54 K, 15003 kPa",1012.1 ± 0.2 kg/m3
same,mass density,"332.54 K, 16015 kPa",1012.7 ± 0.2 kg/m3
same,mass density,"332.54 K, 17011 kPa",1013.3 ± 0.2 kg/m3
same,mass density,"332.54 K, 18014 kPa",1013.9 ± 0.2 kg/m3
same,mass density,"332.54 K, 19014 kPa",1014.4 ± 0.2 kg/m3
same,mass density,"332.54 K, 20009 kPa",1014.9 ± 0.2 kg/m3
same,mass density,"332.54 K, 21013 kPa",1015.4 ± 0.2 kg/m3
same,mass density,"332.54 K, 22007 kPa",1016 ± 0.2 kg/m3
same,mass density,"332.54 K, 23000 kPa",1016.6 ± 0.2 kg/m3
same,mass density,"332.54 K, 24001 kPa",1017.1 ± 0.2 kg/m3
same,mass density,"332.54 K, 25032 kPa",1017.7 ± 0.2 kg/m3
same,mass density,"342.37 K, 1001 kPa",995.7 ± 0.2 kg/m3
same,mass density,"342.37 K, 2002 kPa",996.4 ± 0.2 kg/m3
same,mass density,"342.37 K, 3004 kPa",997.1 ± 0.2 kg/m3
same,mass density,"342.37 K, 4025 kPa",997.7 ± 0.2 kg/m3
same,mass density,"342.37 K, 5036 kPa",998.2 ± 0.2 kg/m3
same,mass density,"342.37 K, 6032 kPa",998.8 ± 0.2 kg/m3
same,mass density,"342.37 K, 7001 kPa",999.3 ± 0.2 kg/m3
same,mass density,"342.37 K, 8020 kPa",999.9 ± 0.2 kg/m3
same,mass density,"342.37 K, 9003 kPa",1000.6 ± 0.2 kg/m3
same,mass density,"342.37 K, 10002 kPa",1001.3 ± 0.2 kg/m3
same,mass density,"342.37 K, 11036 kPa",1001.9 ± 0.2 kg/m3
same,mass density,"342.37 K, 12001 kPa",1002.6 ± 0.2 kg/m3
same,mass density,"342.37 K, 13020 kPa",1003.2 ± 0.2 kg/m3
same,mass density,"342.37 K, 14019 kPa",1003.9 ± 0.2 kg/m3
same,mass density,"342.37 K, 15007 kPa",1004.5 ± 0.2 kg/m3
same,mass density,"342.37 K, 16000 kPa",1005.1 ± 0.2 kg/m3
same,mass density,"342.37 K, 17022 kPa",1005.6 ± 0.2 kg/m3
same,mass density,"342.37 K, 18014 kPa",1006.2 ± 0.2 kg/m3
same,mass density,"342.37 K, 19033 kPa",1006.8 ± 0.2 kg/m3
same,mass density,"342.37 K, 20005 kPa",1007.4 ± 0.2 kg/m3
same,mass density,"342.37 K, 21005 kPa",1007.9 ± 0.2 kg/m3
same,mass density,"342.37 K, 22010 kPa",1008.4 ± 0.2 kg/m3
same,mass density,"342.37 K, 22962 kPa",1009 ± 0.2 kg/m3
same,mass density,"342.37 K, 24021 kPa",1009.7 ± 0.2 kg/m3
same,mass density,"342.37 K, 25017 kPa",1010.2 ± 0.2 kg/m3
same,mass density,"352.15 K, 1023 kPa",987.9 ± 0.2 kg/m3
same,mass density,"352.15 K, 2007 kPa",988.5 ± 0.2 kg/m3
same,mass density,"352.15 K, 3000 kPa",989.1 ± 0.2 kg/m3
same,mass density,"352.15 K, 4003 kPa",989.8 ± 0.2 kg/m3
same,mass density,"352.15 K, 5001 kPa",990.4 ± 0.2 kg/m3
same,mass density,"352.15 K, 6009 kPa",991.1 ± 0.2 kg/m3
same,mass density,"352.15 K, 7001 kPa",991.7 ± 0.2 kg/m3
same,mass density,"352.15 K, 8037 kPa",992.4 ± 0.2 kg/m3
same,mass density,"352.15 K, 9008 kPa",993 ± 0.2 kg/m3
same,mass density,"352.15 K, 10040 kPa",993.7 ± 0.2 kg/m3
same,mass density,"352.15 K, 11006 kPa",994.3 ± 0.2 kg/m3
same,mass density,"352.15 K, 12001 kPa",994.9 ± 0.2 kg/m3
same,mass density,"352.15 K, 13001 kPa",995.5 ± 0.2 kg/m3
same,mass density,"352.15 K, 14009 kPa",996.2 ± 0.2 kg/m3
same,mass density,"352.15 K, 15000 kPa",996.8 ± 0.2 kg/m3
same,mass density,"352.15 K, 16010 kPa",997.4 ± 0.2 kg/m3
same,mass density,"352.15 K, 17028 kPa",998 ± 0.2 kg/m3
same,mass density,"352.15 K, 18020 kPa",998.6 ± 0.2 kg/m3
same,mass density,"352.15 K, 19045 kPa",999.3 ± 0.2 kg/m3
same,mass density,"352.15 K, 20018 kPa",1000 ± 0.2 kg/m3
same,mass density,"352.15 K, 21038 kPa",1000.5 ± 0.2 kg/m3
same,mass density,"352.15 K, 22000 kPa",1001.1 ± 0.2 kg/m3
same,mass density,"352.15 K, 23065 kPa",1001.8 ± 0.2 kg/m3
same,mass density,"352.15 K, 24024 kPa",1002.4 ± 0.2 kg/m3
same,mass density,"352.15 K, 25039 kPa",1002.9 ± 0.2 kg/m3
same,mass density,"361.9 K, 1017 kPa",979.6 ± 0.2 kg/m3
same,mass density,"361.9 K, 1991 kPa",980.3 ± 0.2 kg/m3
same,mass density,"361.9 K, 3004 kPa",981 ± 0.2 kg/m3
same,mass density,"361.9 K, 4027 kPa",981.5 ± 0.2 kg/m3
same,mass density,"361.9 K, 4992 kPa",982.3 ± 0.2 kg/m3
same,mass density,"361.9 K, 6000 kPa",983.1 ± 0.2 kg/m3
same,mass density,"361.9 K, 7033 kPa",983.6 ± 0.2 kg/m3
same,mass density,"361.9 K, 8010 kPa",984.4 ± 0.2 kg/m3
same,mass density,"361.9 K, 9001 kPa",985 ± 0.2 kg/m3
same,mass density,"361.9 K, 9998 kPa",985.8 ± 0.2 kg/m3
same,mass density,"361.9 K, 10994 kPa",986.5 ± 0.2 kg/m3
same,mass density,"361.9 K, 11976 kPa",987 ± 0.2 kg/m3
same,mass density,"361.9 K, 12949 kPa",987.7 ± 0.2 kg/m3
same,mass density,"361.9 K, 14010 kPa",988.3 ± 0.2 kg/m3
same,mass density,"361.9 K, 15017 kPa",989 ± 0.2 kg/m3
same,mass density,"361.9 K, 15992 kPa",989.6 ± 0.2 kg/m3
same,mass density,"361.9 K, 16992 kPa",990.3 ± 0.2 kg/m3
same,mass density,"361.9 K, 18007 kPa",990.8 ± 0.2 kg/m3
same,mass density,"361.9 K, 19034 kPa",991.6 ± 0.2 kg/m3
same,mass density,"361.9 K, 19992 kPa",992.1 ± 0.2 kg/m3
same,mass density,"361.9 K, 21000 kPa",992.9 ± 0.2 kg/m3
same,mass density,"361.9 K, 22059 kPa",993.4 ± 0.2 kg/m3
same,mass density,"361.9 K, 23020 kPa",994.1 ± 0.2 kg/m3
same,mass density,"361.9 K, 24014 kPa",994.8 ± 0.2 kg/m3
same,mass density,"361.9 K, 25002 kPa",995.3 ± 0.2 kg/m3
